The values that follow come from publication PMC3042952 (Nature structural & molecular biology, 2009).

Experiment [1] deals with T1, T2-TrpRS (Homo sapiens, UniProt P23381).
T1 sequence (P23381 94-471): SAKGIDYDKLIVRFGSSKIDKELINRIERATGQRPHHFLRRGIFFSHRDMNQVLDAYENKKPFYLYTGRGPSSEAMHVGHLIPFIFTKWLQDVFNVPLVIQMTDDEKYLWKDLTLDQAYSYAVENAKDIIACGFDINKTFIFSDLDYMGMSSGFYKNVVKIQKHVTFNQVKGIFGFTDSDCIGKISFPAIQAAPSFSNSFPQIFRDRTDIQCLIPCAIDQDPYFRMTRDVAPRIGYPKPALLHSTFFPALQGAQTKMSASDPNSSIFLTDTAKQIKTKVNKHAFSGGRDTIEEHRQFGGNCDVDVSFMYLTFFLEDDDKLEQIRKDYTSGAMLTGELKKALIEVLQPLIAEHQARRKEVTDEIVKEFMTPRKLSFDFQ
In words: isothermal titration calorimetry. Type of experiment: binding.

The target in experiment [2] is T2, human VE-cadherin (extracellular portion)-Fc fusion, purified (human, UniProt P33151 48-599).
T2 sequence (looked up): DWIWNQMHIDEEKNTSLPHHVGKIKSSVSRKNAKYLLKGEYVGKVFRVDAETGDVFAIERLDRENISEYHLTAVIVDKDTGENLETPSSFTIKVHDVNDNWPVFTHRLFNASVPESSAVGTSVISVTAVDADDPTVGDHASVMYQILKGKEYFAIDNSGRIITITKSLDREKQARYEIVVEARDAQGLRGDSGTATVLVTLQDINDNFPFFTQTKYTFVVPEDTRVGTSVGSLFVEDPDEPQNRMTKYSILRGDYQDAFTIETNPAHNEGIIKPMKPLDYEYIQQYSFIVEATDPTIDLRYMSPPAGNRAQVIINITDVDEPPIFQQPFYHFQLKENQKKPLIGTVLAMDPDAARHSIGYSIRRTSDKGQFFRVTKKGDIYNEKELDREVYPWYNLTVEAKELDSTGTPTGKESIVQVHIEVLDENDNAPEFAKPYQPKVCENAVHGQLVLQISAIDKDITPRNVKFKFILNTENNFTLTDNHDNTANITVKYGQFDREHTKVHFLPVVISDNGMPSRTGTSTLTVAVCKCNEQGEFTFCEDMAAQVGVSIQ
The experiment can be described thus: co-IP.

On to `N[C@@H](Cc1c[nH]c2ccccc12)C(=O)O` [Trp], for which binding in experiment [1] was characterised by a dissociation constant (Kd) of 11 µM.

B1: full-length human tryptophanyl-tRNA synthetase (FL-TrpRS) (enzyme, UniProt P23381 1-471, looked up)
chain: MPNSEPASLLELFNSIATQGELVRSLKAGNASKDEIDSAVKMLVSLKMSYKAAAGEDYKADCPPGNPAPTSNHGPDATEAEEDFVDPWTVQTSSAKGIDYDKLIVRFGSSKIDKELINRIERATGQRPHHFLRRGIFFSHRDMNQVLDAYENKKPFYLYTGRGPSSEAMHVGHLIPFIFTKWLQDVFNVPLVIQMTDDEKYLWKDLTLDQAYSYAVENAKDIIACGFDINKTFIFSDLDYMGMSSGFYKNVVKIQKHVTFNQVKGIFGFTDSDCIGKISFPAIQAAPSFSNSFPQIFRDRTDIQCLIPCAIDQDPYFRMTRDVAPRIGYPKPALLHSTFFPALQGAQTKMSASDPNSSIFLTDTAKQIKTKVNKHAFSGGRDTIEEHRQFGGNCDVDVSFMYLTFFLEDDDKLEQIRKDYTSGAMLTGELKKALIEVLQPLIAEHQARRKEVTDEIVKEFMTPRKLSFDFQ
Regarding B1, the “amount bound relative to T2-TrpRS” value in experiment [2] was around 5%.

Broadly, the Kd is a measure of binding affinity in units of concentration.
